Source: ChEMBL document CHEMBL1201862, “PubChem BioAssay data set” (2004)
Calls of active or inactive are those of the source.

Legend:
[1] = target: Mu-type opioid receptor (Homo sapiens, UniProt P35372); type: functional, cell-based;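 further: U2OS cells with beta-arrestin recruitment to OPRM1 by beta-gal complementation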
[2] = target: 5-hydroxytryptamine receptor 2A (Mus musculus, UniProt P35363); type: functional, cell-based;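 further: CHO-K1 cells with tagged receptor and beta-arrestin; agonist potency measured as compound-induced activation of the receptor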
Chain of 5-hydroxytryptamine receptor 2A (P35363 whole entry): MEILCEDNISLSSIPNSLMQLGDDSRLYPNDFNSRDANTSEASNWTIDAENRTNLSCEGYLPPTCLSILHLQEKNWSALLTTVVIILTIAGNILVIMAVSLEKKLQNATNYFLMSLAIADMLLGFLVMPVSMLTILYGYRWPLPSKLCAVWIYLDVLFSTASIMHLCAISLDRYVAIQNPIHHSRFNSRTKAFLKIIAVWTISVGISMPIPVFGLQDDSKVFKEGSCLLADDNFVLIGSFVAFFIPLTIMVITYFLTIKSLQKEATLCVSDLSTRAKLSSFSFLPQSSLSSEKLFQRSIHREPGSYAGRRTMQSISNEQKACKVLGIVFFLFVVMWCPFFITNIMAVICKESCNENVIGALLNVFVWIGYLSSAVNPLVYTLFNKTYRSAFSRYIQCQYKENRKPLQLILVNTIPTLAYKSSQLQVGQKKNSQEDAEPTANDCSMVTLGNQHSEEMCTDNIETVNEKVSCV

[3] = system: BJ; assay: cytotoxicity toward Ras-transformed BJeLR fibroblasts, dose response, cell-based, alamar blue fluorescence, cherrypicked samples (AID 2631); type: functional; conditions: Homo sapiens;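 further: confirmatory dose-response assay in RAS-dependent BJ fibroblasts engineered with TERT, LT and ST, with cytotoxicity read by fluorescence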
[4] = CEM21 lymphoblast cell cytotoxicity, dose response, cytotoxicity control for viral fusion inhibitor project, CellTiter-Glo luminescence, cherry-picked (AID 652042); type: functional, cell-based;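 further: potency for signal decrease meaning cytotoxicity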
[5] = system: BJ; assay: cytotoxicity toward BJ-TERT fibroblasts, dose response, cell-based, RAS-independent, luminescence (AID 1933); type: functional; conditions: Homo sapiens
[6] = system: BJ; assay: cells; type: functional, cell-based; conditions: Homo sapiens
[7] = off-target signal loss in HeLa-CEM21 co-culture – HeLa F-luc CTL cells, cherry-picked, counter-screen for HIV-1 Env fusion inhibitor project, dose response (AID 652040); type: functional, cell-based;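 further: potency for signal decrease marking cytotoxic or nonspecific inhibition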
[8] = Luminescence Cell-Based Dose Confirmation HTS to Identify Inhibitors of Platelet Dense Granule Release. [Related pubchem assays: 1663 (Primary HTS), 1678 (Summary of Project)]; type: functional
[9] = cytotoxicity toward DRD oncogenic fibroblasts, dose response, cell-based, non-viral oncogenic, luminescence (AID 1934); type: functional; conditions: Homo sapiens
[10] = inhibitors of clade B AD8 Env fusion, dose response, cell-based, cherry-pick (AID 652062); type: functional;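 further: luciferase signal from cell-cell fusion driven by HIV-1 clade B AD8 Env; potency is for inhibitors of fusion seen as a drop in luminescence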
[11] = inhibitors of HIV Env-driven cell fusion, dose response, cherry-pick (AID 652057); type: functional, cell-based
[12] = A Cell Based Secondary Assay To Explore Cytotoxicity of Compounds that Sensitize Mycobacterium Tuberculosis to Beta-Lactam Antibiotics.; type: functional
[13] = target: Luciferin 4-monooxygenase (Photinus pyralis, UniProt P08659); assay: firefly luciferase enzyme inhibitors, dose response, biochemical, luminescence (AID 1891)
Chain of Luciferin 4-monooxygenase (P08659 whole entry): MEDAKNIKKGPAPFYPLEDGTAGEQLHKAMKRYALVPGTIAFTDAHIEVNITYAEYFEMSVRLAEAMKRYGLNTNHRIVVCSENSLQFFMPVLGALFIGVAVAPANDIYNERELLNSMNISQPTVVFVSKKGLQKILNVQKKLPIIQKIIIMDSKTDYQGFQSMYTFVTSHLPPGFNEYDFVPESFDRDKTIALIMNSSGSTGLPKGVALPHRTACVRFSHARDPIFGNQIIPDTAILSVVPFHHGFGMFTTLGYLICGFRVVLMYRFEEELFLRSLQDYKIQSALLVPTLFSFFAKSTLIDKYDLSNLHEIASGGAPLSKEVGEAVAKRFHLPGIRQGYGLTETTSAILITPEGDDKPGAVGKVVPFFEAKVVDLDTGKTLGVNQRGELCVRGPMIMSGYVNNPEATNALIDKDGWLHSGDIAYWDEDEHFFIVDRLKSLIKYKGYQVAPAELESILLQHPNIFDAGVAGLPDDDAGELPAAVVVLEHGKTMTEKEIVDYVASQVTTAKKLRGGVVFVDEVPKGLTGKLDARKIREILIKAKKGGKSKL

[14] = system: BJ; assay: cytotoxicity toward BJ-TERT-LT-ST fibroblasts, dose response, cell-based, RAS-independent, luminescence (AID 1935); type: functional; conditions: Homo sapiens;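 further: BJ fibroblasts immortalized with TERT plus LT and ST oncogenes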
[15] = system: INS1; assay: beta cell apoptosis inhibitors, cytokine rescue, dose response, luminescence, retest (AID 449756); type: functional, cell-based; conditions: Rattus norvegicus;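 further: cell death triggered by IL-1 beta plus TNF-alpha plus IFN-gamma mixture; protective hits raise ATP signal compared with cytokine alone wells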
[16] = HEp-2 cell cytotoxicity, dose response, cytotoxicity control for RSV inhibitor project, HTS (AID 2410); type: functional; conditions: human respiratory syncytial virus
[17] = target: T1, Methionyl-tRNA synthetase, putative (Trypanosoma brucei brucei, UniProt Q38C91); type: functional, Trypanosoma brucei brucei strain 927/4 GUTat10.1
T1 sequence (Q38C91 whole entry): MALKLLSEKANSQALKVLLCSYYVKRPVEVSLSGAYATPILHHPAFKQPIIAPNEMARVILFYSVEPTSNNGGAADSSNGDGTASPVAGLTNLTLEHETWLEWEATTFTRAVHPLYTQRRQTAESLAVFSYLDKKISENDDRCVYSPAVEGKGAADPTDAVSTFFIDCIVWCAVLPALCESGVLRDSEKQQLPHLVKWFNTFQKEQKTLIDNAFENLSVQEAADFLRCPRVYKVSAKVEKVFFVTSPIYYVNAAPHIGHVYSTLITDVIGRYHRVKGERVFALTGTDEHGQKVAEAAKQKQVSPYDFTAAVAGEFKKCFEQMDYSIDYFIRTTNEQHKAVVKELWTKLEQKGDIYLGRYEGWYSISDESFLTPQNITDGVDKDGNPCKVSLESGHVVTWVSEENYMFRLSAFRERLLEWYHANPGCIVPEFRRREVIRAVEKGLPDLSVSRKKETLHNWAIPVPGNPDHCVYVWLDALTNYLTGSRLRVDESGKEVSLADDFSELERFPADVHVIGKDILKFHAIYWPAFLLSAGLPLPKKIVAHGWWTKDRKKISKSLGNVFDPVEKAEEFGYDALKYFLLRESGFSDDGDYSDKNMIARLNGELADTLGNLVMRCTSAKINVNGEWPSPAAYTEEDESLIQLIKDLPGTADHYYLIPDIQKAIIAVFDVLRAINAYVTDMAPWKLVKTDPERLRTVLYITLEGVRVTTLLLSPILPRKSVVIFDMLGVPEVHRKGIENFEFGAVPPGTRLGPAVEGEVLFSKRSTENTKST

[18] = target: T1, Methionyl-tRNA synthetase, putative; type: functional, Trypanosoma brucei brucei strain 927/4 GUTat10.1; remark: listed apart in the source
[19] = Counterscreen for inhibitors of Trypanosoma brucei methionyl tRNA synthetase (MetRS): Luminescence-based cell-based high throughput dose response assay to identify compounds that are cytotoxic to Jurkat human T lymphocyte cells.; type: functional
[20] = target: T2, Sentrin-specific protease 8 (Homo sapiens, UniProt Q96LD8); type: functional
T2 sequence (Q96LD8 whole entry): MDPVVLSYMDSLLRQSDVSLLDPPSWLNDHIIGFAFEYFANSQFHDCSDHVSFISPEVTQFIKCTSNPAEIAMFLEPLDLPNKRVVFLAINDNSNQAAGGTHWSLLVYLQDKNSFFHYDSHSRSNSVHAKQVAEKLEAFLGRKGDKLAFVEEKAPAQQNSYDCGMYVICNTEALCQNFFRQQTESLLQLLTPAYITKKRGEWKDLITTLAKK

[21] = target: T3, Caspase-3 (Homo sapiens, UniProt P42574); assay: Dose-response confirmation of uHTS inhibitor hits of Sentrin-Specific Protease 8 in a Caspase-3 Fluorescence assay.; type: functional
T3 sequence (P42574 whole entry): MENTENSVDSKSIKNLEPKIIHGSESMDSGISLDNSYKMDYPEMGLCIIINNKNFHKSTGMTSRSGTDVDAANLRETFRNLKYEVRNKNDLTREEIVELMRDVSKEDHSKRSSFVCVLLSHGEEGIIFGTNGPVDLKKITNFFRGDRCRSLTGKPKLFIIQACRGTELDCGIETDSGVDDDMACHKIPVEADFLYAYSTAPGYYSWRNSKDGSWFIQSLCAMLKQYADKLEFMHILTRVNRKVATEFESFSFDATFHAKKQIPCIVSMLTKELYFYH

[22] = target: T2, Sentrin-specific protease 8; type: functional; remark: listed apart in the source
[23] = target: SWI/SNF-related matrix-associated actin-dependent regulator of chromatin subfamily A member 2 (Homo sapiens, UniProt P51531); assay: Luminescence-based cell-based high throughput dose response assay to identify activators of the function of SWI/SNF related, matrix associated, actin dependent regulator of chromatin, subfamily a, member 2 (SMARCA2, BRM).; type: functional
Chain of SWI/SNF-related matrix-associated actin-dependent regulator of chromatin subfamily A member 2 (P51531 whole entry): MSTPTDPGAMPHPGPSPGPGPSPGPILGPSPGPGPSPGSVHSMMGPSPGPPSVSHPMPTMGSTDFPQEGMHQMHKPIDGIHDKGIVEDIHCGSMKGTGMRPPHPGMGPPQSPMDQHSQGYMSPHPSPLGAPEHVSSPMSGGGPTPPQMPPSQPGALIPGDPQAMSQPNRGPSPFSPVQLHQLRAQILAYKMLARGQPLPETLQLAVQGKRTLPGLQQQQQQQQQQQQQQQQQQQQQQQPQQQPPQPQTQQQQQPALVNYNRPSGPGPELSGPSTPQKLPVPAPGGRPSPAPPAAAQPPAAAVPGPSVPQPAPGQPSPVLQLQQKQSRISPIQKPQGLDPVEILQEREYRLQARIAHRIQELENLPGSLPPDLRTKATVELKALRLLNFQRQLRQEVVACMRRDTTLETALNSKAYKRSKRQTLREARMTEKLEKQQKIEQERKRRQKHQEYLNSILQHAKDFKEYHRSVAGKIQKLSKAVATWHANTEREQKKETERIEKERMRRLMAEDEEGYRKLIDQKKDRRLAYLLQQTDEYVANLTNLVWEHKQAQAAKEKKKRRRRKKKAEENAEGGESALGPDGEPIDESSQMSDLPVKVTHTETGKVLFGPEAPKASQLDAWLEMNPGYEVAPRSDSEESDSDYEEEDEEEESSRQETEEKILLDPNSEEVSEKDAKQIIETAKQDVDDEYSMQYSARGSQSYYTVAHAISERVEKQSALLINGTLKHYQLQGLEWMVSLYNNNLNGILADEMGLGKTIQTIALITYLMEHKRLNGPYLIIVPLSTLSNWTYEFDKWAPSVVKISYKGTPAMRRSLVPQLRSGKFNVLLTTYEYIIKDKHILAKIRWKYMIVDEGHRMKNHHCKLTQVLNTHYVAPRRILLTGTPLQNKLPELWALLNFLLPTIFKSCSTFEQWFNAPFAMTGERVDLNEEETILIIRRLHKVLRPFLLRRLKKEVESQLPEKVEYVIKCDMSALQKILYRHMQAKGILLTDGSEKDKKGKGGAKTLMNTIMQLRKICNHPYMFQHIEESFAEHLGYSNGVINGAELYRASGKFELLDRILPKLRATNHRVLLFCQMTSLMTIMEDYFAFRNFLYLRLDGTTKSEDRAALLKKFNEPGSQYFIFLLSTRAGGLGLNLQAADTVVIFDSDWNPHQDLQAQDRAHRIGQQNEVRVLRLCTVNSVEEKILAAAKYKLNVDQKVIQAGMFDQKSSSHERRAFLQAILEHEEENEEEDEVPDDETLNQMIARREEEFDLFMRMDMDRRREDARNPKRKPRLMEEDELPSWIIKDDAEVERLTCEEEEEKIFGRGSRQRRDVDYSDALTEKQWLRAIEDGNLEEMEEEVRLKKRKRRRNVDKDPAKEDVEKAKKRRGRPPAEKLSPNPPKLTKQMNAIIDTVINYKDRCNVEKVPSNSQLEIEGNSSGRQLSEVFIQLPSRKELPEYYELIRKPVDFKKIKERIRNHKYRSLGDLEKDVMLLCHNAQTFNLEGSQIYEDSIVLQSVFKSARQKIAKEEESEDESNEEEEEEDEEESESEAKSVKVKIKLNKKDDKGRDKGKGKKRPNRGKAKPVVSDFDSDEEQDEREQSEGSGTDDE

[24] = Counterscreen for activators of the function of SWI/SNF related, matrix associated, actin dependent regulator of chromatin, subfamily a, member 2 (SMARCA2, BRM): Luminescence-based cell-based high throughput dose response assay to identify non-selective compounds using the VP16 reporter assay.; type: functional
[25] = target: T4, Long-chain-fatty-acid--AMP ligase FadD28 (Mycobacterium tuberculosis, UniProt P9WQ59); assay: Fluorescence polarization aasay to screen for inhibitors that compete for the binding of FadD28 to a bisubstrate Measured in Biochemical System Using Plate Reader - 2147-01_Inhibitor_Dose_CherryPick_Activity.; type: functional, Mycobacterium tuberculosis H37Rv
T4 sequence (P9WQ59 whole entry): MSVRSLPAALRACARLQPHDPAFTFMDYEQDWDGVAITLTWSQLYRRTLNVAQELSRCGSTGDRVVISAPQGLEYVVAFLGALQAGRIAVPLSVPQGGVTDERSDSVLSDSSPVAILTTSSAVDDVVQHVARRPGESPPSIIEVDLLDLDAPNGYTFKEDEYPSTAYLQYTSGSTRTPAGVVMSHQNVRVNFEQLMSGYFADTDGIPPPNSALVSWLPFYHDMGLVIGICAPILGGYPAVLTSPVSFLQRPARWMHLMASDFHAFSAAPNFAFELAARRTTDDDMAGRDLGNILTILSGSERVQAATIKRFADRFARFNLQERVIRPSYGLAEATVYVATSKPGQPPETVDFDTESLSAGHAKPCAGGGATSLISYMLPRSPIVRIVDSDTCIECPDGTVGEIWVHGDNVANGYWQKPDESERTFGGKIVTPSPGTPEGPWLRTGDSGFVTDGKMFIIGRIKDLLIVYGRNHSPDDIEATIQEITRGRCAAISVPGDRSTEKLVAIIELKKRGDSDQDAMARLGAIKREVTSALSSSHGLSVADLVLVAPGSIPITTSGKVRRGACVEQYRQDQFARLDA

[26] = target: T5, Sentrin-specific protease 1 (Homo sapiens, UniProt Q9P0U3); assay: Dose response confirmation of small molecule inhibitors of the catalytic domain of the SUMO protease, SENP1 in a FRET assay.; type: functional; conditions: read-out: IC50_Mean
T5 sequence (Q9P0U3 whole entry): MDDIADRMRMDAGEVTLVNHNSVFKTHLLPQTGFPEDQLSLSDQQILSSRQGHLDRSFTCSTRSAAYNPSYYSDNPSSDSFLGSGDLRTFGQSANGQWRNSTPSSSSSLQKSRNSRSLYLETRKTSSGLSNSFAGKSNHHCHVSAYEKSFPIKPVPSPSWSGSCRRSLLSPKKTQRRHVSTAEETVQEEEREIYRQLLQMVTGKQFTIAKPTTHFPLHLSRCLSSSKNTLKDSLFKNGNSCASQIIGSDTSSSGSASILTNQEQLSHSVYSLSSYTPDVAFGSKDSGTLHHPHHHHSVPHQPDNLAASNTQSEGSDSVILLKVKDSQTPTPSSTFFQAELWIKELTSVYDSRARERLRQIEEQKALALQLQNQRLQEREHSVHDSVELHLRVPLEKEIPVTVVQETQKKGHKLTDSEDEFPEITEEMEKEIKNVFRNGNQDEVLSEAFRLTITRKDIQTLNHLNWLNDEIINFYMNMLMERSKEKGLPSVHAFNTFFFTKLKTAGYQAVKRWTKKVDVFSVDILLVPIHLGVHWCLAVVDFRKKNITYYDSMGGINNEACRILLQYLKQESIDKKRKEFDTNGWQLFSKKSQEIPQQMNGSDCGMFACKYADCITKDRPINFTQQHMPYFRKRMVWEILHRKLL

[27] = target: T5, Sentrin-specific protease 1; assay: potency of human SENP1 inhibitors, dose response, biochemical, kinetic FRET (AID 651697); type: functional; conditions: read-out: IC50_Mean

Chain of Mu-type opioid receptor (P35372 whole entry): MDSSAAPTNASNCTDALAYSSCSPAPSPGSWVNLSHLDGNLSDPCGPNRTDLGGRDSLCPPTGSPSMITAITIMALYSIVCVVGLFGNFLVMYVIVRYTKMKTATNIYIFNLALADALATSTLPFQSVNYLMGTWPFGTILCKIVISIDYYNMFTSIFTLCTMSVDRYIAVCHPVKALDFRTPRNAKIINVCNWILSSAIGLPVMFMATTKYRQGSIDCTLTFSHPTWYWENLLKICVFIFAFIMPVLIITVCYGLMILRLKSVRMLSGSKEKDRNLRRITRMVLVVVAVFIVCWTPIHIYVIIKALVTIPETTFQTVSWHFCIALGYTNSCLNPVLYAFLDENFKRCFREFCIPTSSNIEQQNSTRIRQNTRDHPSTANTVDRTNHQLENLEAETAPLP

Cc1cccc(CN2CCN(c3ncccn3)CC2)c1
EC50 [1]: 92.5 µM (inactive) | EC50 [2]: 0.182 µM (active)

O=C(Nc1nc2ccccc2[nH]1)c1ccccc1F
EC50 [3]: > 133 µM (inactive) | AC50 [4]: 5.17 µM (active) | EC50 [5]: 2.44 µM (active) | EC50 [6]: 2.23 µM (active) | AC50 [7]: 6.83 µM (active) | EC50 [8]: 1.13 µM (active) | EC50 [9]: 1.86 µM (active) | AC50 [10]: 6.17 µM (active) | AC50 [11]: 3.82 µM (active) | CC50 [12]: 8.56 µM (active) | EC50 [13]: 1.19 µM (active) | EC50 [14]: 6.85 µM (inconclusive) | AC50 [15]: 3.06 µM (active)

O=C(NCc1nc2ccccc2[nH]1)C1=C[C@H](c2ccc3c(c2)OCO3)C[C@H](OCc2ccc(CO)cc2)O1
CC50 [16]: > 50 µM (active) | IC50 [17]: 8.12 µM (active) | IC50 [18]: 2.79 µM (active) | IC50 [19]: 83.3 µM (inactive)

O=C1/C(=C/NCCc2ccccc2)c2ccccc2C(=O)N1Cc1ccccc1
IC50 [20]: 10.9 µM (active) | IC50 [21]: 83.2 µM (inactive) | IC50 [22]: 4.54 µM (active)

O=C(c1n[nH]cc1-c1cccc(Br)c1)C1CO1 (configuration not stated)
EC50 [23]: > 91.2 µM (inactive) | EC50 [24]: > 91.2 µM (inactive)

COc1cc(/C=C2\CCCc3c2nc2ccccc2c3C(=O)O)cc(Br)c1O
AC50 [25]: 63.8 µM (active) | IC50 [26]: 2.85 µM (active) | IC50 [27]: 3.84 µM (active)
